The subject of the assay is PABPC1 PABC. The class given is binding, human. To be noted: DMS-BM library, bait PABPC1 PABC, row aa = residue at this position.
Setting [1] is: prey ATXN2, peptide KSTLNPNAKEFNPRSF, N = wild type.
The mark [2] stands for this setting: prey ATXN2, peptide TLNPNAKEFNPRSFSQ, K = wild type.
Where [3] appears, read: prey ATXN2, peptide KSTLNPNAKEFNPRSF, S = wild type.
The mark [4] stands for this setting: prey ATXN2, peptide TLNPNAKEFNPRSFSQ, S = wild type.
Setting [5] is: prey ATXN2, peptide KSTLNPNAKEFNPRSF, L = wild type.
Where [6] appears, read: prey ATXN2, peptide TLNPNAKEFNPRSFSQ, N = wild type.
Where [7] appears, read: prey ATXN2, peptide TLNPNAKEFNPRSFSQ, E = wild type.
Where [8] appears, read: prey ATXN2, peptide TLNPNAKEFNPRSFSQ, T = wild type.
[9] abbreviates: prey ATXN2, TLNPNAKEFNPRSF(averaged) over the two overlapping peptides, E = wild type.
Where [10] appears, read: prey ATXN2, TLNPNAKEFNPRSF(averaged) over the two overlapping peptides, N = wild type.

The values that follow come from paper PMC12102759 (Protein Science : A Publication of the Protein Society, 2025).

Read-outs that look alike come from different tables or passages of the source.

As to “TLNPNAKEFNPRSF(averaged) L2M (TMNPNAKEFNPRSF)”, the “DMS-derived PSSM value (averaged), position L2” value (prey ATXN2, TLNPNAKEFNPRSF(averaged) over the two overlapping peptides, L = wild type) worked out at 0.2157.

KSTLNPNAKEFNPRSF A8H (KSTLNPNHKEFNPRSF): the “DMS-derived PSSM value, position A8” value (prey ATXN2, peptide KSTLNPNAKEFNPRSF, A = wild type) amounted to 0.

On to “TLNPNAKEFNPRSF(averaged) A6M (TLNPNMKEFNPRSF)”, for which the “DMS-derived PSSM value (averaged), position A6” value (prey ATXN2, TLNPNAKEFNPRSF(averaged) over the two overlapping peptides, A = wild type) came out at 0.

For KSTLNPNAKEFNPRSF N5P (KSTLPPNAKEFNPRSF), the “DMS-derived PSSM value, position N5” value under setting [1] amounted to 0.

For the substance TLNPNAKEFNPRSFSQ K7Y (TLNPNAYEFNPRSFSQ), under setting [2], the “DMS-derived PSSM value, position K7” value stood at 0.472.

Consider “KSTLNPNAKEFNPRSF S15H (KSTLNPNAKEFNPRHF)”, for which the “DMS-derived PSSM value, position S15” value under setting [3] was found to be 0.1165.

As for “TLNPNAKEFNPRSFSQ S15W (TLNPNAKEFNPRSFWQ)”, the “DMS-derived PSSM value, position S15” value under setting [4] is reported as 0.05986.

On to “TLNPNAKEFNPRSF(averaged) R12E (TLNPNAKEFNPESF)”, for which the “DMS-derived PSSM value (averaged), position R12” value (prey ATXN2, TLNPNAKEFNPRSF(averaged) over the two overlapping peptides, R = wild type) was determined as 0.01393.

For KSTLNPNAKEFNPRSF L4E (KSTENPNAKEFNPRSF), the “DMS-derived PSSM value, position L4” value under setting [5] was found to be 0.

As to TLNPNAKEFNPRSFSQ N5L (TLNPLAKEFNPRSFSQ), the “DMS-derived PSSM value, position N5” value under setting [6] turned out to be 0.06159.

In the case of KSTLNPNAKEFNPRSF T3D (KSDLNPNAKEFNPRSF), the “DMS-derived PSSM value, position T3” value (prey ATXN2, peptide KSTLNPNAKEFNPRSF, T = wild type) was 0.0007076.

Turning to TLNPNAKEFNPRSFSQ E8V (TLNPNAKVFNPRSFSQ), the “DMS-derived PSSM value, position E8” value under setting [7] is 0.09834.

As to TLNPNAKEFNPRSFSQ T1R (RLNPNAKEFNPRSFSQ), the “DMS-derived PSSM value, position T1” value under setting [8] was 0.08249.

For the substance KSTLNPNAKEFNPRSF N7H (KSTLNPHAKEFNPRSF), the “DMS-derived PSSM value, position N7” value under setting [1] came out at 0.03167.

Consider “KSTLNPNAKEFNPRSF E10Y (KSTLNPNAKYFNPRSF)”, for which the “DMS-derived PSSM value, position E10” value (prey ATXN2, peptide KSTLNPNAKEFNPRSF, E = wild type) amounted to 0.

In the case of “TLNPNAKEFNPRSFSQ S13Y (TLNPNAKEFNPRYFSQ)”, the “DMS-derived PSSM value, position S13” value under setting [4] is on record as 0.04643.

For the substance “TLNPNAKEFNPRSFSQ S15F (TLNPNAKEFNPRSFFQ)”, under setting [4], the “DMS-derived PSSM value, position S15” value was determined as 0.01014.

Consider KSTLNPNAKEFNPRSF N5I (KSTLIPNAKEFNPRSF), for which the “DMS-derived PSSM value, position N5” value under setting [1] is given as 0.

In the case of TLNPNAKEFNPRSFSQ E8K (TLNPNAKKFNPRSFSQ), the “DMS-derived PSSM value, position E8” value under setting [7] was 0.

Take KSTLNPNAKEFNPRSF L4H (KSTHNPNAKEFNPRSF): the “DMS-derived PSSM value, position L4” value under setting [5] is reported as 0.

As for “TLNPNAKEFNPRSF(averaged) E8D (TLNPNAKDFNPRSF)”, under setting [9], the “DMS-derived PSSM value (averaged), position E8” value worked out at 0.

“TLNPNAKEFNPRSF(averaged) E8T (TLNPNAKTFNPRSF)”: the “DMS-derived PSSM value (averaged), position E8” value under setting [9] was 0.1317.

Take TLNPNAKEFNPRSFSQ T1N (NLNPNAKEFNPRSFSQ): the “DMS-derived PSSM value, position T1” value under setting [8] came out at 0.02571.

In the case of “TLNPNAKEFNPRSFSQ S13R (TLNPNAKEFNPRRFSQ)”, the “DMS-derived PSSM value, position S13” value under setting [4] is 0.001962.

Regarding “TLNPNAKEFNPRSF(averaged) F9R (TLNPNAKERNPRSF)”, the “DMS-derived PSSM value (averaged), position F9” value (prey ATXN2, TLNPNAKEFNPRSF(averaged) over the two overlapping peptides, F = wild type) amounted to 0.

For the substance KSTLNPNAKEFNPRSF S2W (KWTLNPNAKEFNPRSF), the “DMS-derived PSSM value, position S2” value under setting [3] was 0.0005784.

As for “TLNPNAKEFNPRSF(averaged) N3H (TLHPNAKEFNPRSF)”, the “DMS-derived PSSM value (averaged), position N3” value under setting [10] is given as 0.

On to TLNPNAKEFNPRSFSQ K7P (TLNPNAPEFNPRSFSQ), for which, under setting [2], the “DMS-derived PSSM value, position K7” value worked out at 0.006619.

Consider “TLNPNAKEFNPRSF(averaged) K7G (TLNPNAGEFNPRSF)”, for which the “DMS-derived PSSM value (averaged), position K7” value (prey ATXN2, TLNPNAKEFNPRSF(averaged) over the two overlapping peptides, K = wild type) is on record as 0.008693.

For “TLNPNAKEFNPRSFSQ F14E (TLNPNAKEFNPRSESQ)”, the “DMS-derived PSSM value, position F14” value (prey ATXN2, peptide TLNPNAKEFNPRSFSQ, F = wild type) is reported as 0.02018.

Regarding “KSTLNPNAKEFNPRSF F11N (KSTLNPNAKENNPRSF)”, the “DMS-derived PSSM value, position F11” value (prey ATXN2, peptide KSTLNPNAKEFNPRSF, F = wild type) turned out to be 0.09626.

As for “TLNPNAKEFNPRSF(averaged) E8Y (TLNPNAKYFNPRSF)”, the “DMS-derived PSSM value (averaged), position E8” value under setting [9] was 0.02496.

For the substance “TLNPNAKEFNPRSF(averaged) N5H (TLNPHAKEFNPRSF)”, under setting [10], the “DMS-derived PSSM value (averaged), position N5” value was found to be 0.03609.

As to “TLNPNAKEFNPRSFSQ N10M (TLNPNAKEFMPRSFSQ)”, the “DMS-derived PSSM value, position N10” value under setting [6] was 0.1.

As to TLNPNAKEFNPRSFSQ N3F (TLFPNAKEFNPRSFSQ), the “DMS-derived PSSM value, position N3” value under setting [6] is 0.
